What was measured:
pigweed = assay: Test B pre/postemergence pigweed; format: in vivo, Amaranthus retroflexus
Procedure, shortened: (§1)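 Herbicidal effect was estimated by eye on a ten-point control scale after plants spent twelve to sixteen days in a greenhouse following soil or foliar treatment. Foliar sprays targeted plants at one to four leaves; all doses were formulated in a non-phytotoxic solvent with surfactant.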

velvetleaf = assay: Test B pre/postemergence velvetleaf; format: in vivo, Abutilon theophrasti
Procedure, shortened: as §1

sugar beet = assay: Test B pre/postemergence sugar beet; format: in vivo, Beta vulgaris
Procedure, shortened: as §1

wild oat = assay: Test B pre/postemergence wild oat; format: in vivo, Avena fatua
Procedure, shortened: as §1

corn = assay: Test B pre/postemergence corn; format: in vivo, Zea mays
Procedure, shortened: as §1

purple nutsedge = assay: Test B pre/postemergence purple nutsedge; format: in vivo, Cyperus rotundus
Procedure, shortened: as §1

wheat = assay: Test B pre/postemergence wheat; format: in vivo, Triticum aestivum
Procedure, shortened: as §1

bedstraw = assay: Test B pre/postemergence bedstraw; format: in vivo, Galium aparine
Procedure, shortened: as §1

duck salad = assay: Test B flood test duck salad; format: in vivo, Heteranthera limosa
Procedure, shortened: (§2)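 Read-out is a visual response score from 0 (no effect) to 10 (complete control), assigned by comparison with untreated controls. Treatment was applied at the 2-leaf stage, and plants stayed in the greenhouse for twelve to sixteen days before scoring.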

rice = assay: Test B flood test rice; format: in vivo, Oryza sativa
Procedure, shortened: as §2

cocklebur = assay: Test B pre/postemergence cocklebur; format: in vivo, Xanthium strumarium
Procedure, shortened: as §1

crabgrass = assay: Test B pre/postemergence crabgrass; format: in vivo, Digitaria sanguinalis
Procedure, shortened: as §1

giant foxtail = assay: Test B pre/postemergence giant foxtail; format: in vivo, Setaria faberii
Procedure, shortened: as §1

soybean = assay: Test B pre/postemergence soybean; format: in vivo, Glycine max
Procedure, shortened: as §1

surinam grass = assay: Test B pre/postemergence surinam grass; format: in vivo, Brachiaria decumbens
Procedure, shortened: as §1

blackgrass = assay: Test B pre/postemergence blackgrass; format: in vivo, Alopecurus myosuroides
Procedure, shortened: as §1

[1] = Preemergence, Rate 62 g/ha, scale of 0 to 10 where 0 is no effect and 10 is complete control
[2] = Preemergence, Rate 125 g/ha, 0 is no effect, 10 is complete control
[3] = Preemergence, Rate 250 g/ha, scale 0 to 10, 0 is no effect, 10 is complete control
[4] = Preemergence, Rate 500 g/ha, scale of 0 to 10 where 0 is no effect and 10 is complete control
[5] = Rate 62 g/ha, Postemergence, scale of 0 to 10 where 0 is no effect and 10 is complete control
[6] = Rate 125 g/ha, Postemergence, scale 0 to 10
[7] = Rate 500 g/ha, Postemergence, scale 0 to 10
[8] = Rate 62 g/ha, headed Pre-emergence (flood test species), scale 0 to 10 (0 no effect, 10 complete control)
[9] = Rate 125 g/ha, Pre-emergence, flood test species, scale 0 to 10 where 0 is no effect and 10 is complete control
[10] = Rate 250 g/ha, Pre-emergence, flood-test species, scale 0 to 10, 0 is no effect, 10 is complete control
[11] = Rate 500 g/ha, headed Pre-emergence (flood test species), scale 0 to 10 (0 no effect, 10 complete control)

Cc1nc(C)c(-n2c(=O)on(C(=O)N(c3ccccc3)C(C)C)c2=O)s1 [Compound 197]
Redroot pigweed plant response rating (pigweed; [1]): 0 | Redroot pigweed plant response rating (0 to 10 scale) (pigweed; [2]): 0 | Redroot pigweed plant response rating (pigweed; [3]): 0 | Plant response rating, Redroot pigweed (pigweed; [4]): 0 | Redroot pigweed plant response rating (pigweed; [5]): 0 | Redroot pigweed plant response rating (pigweed; [6]): 0 | Plant response rating (0 to 10; 0 is no effect, 10 is complete control), Redroot pigweed (pigweed; Rate 250 g/ha, Postemergence): 0 | Redroot pigweed plant response rating (pigweed; [7]): 0 | Velvetleaf plant response rating (velvetleaf; [1]): 0 | Velvetleaf plant response rating (velvetleaf; [3]): 0 | Plant response rating, Velvetleaf (velvetleaf; [4]): 0 | Velvetleaf plant response rating (velvetleaf; [5]): 0 | Velvetleaf plant response rating (velvetleaf; [6]): 0 | Plant response rating (0 to 10; 0 is no effect, 10 is complete control), Velvetleaf (velvetleaf; Rate 250 g/ha, Postemergence): 0 | Sugarbeets plant response rating (sugar beet; [1]): 0 | Sugarbeets plant response rating (0 to 10 scale) (sugar beet; [2]): 0 | Sugarbeets plant response rating (sugar beet; [3]): 0 | Plant response rating, Sugarbeets (sugar beet; [4]): 0 | Sugarbeets plant response rating (sugar beet; [5]): 0 | Sugarbeets plant response rating (sugar beet; [6]): 0 | Plant response rating (0 to 10; 0 is no effect, 10 is complete control), Sugarbeets (sugar beet; Rate 250 g/ha, Postemergence): 0 | Sugarbeets plant response rating (sugar beet; [7]): 0 | Wild oats plant response rating (wild oat; [1]): 0 | Wild oats plant response rating (wild oat; [3]): 0 | Plant response rating, Wild oats (wild oat; [4]): 0 | Wild oats plant response rating (wild oat; [5]): 0 | Wild oats plant response rating (wild oat; [6]): 0 | Plant response rating (0 to 10; 0 is no effect, 10 is complete control), Wild oats (wild oat; Rate 250 g/ha, Postemergence): 0 | Corn plant response rating (corn; [1]): 0 | Corn plant response rating (0 to 10 scale) (corn; [2]): 0 | Corn plant response rating (corn; [3]): 0 | Plant response rating, Corn (corn; [4]): 0 | Corn plant response rating (corn; [5]): 0 | Corn plant response rating (corn; [6]): 0 | Plant response rating (0 to 10; 0 is no effect, 10 is complete control), Corn (corn; Rate 250 g/ha, Postemergence): 0 | Corn plant response rating (corn; [7]): 0 | Nutsedge plant response rating (purple nutsedge; [1]): 0 | Nutsedge plant response rating (0 to 10 scale) (purple nutsedge; [2]): 0 | Nutsedge plant response rating (purple nutsedge; [3]): 0 | Plant response rating, Nutsedge (purple nutsedge; [4]): 0 | Nutsedge plant response rating (purple nutsedge; [5]): 0 | Nutsedge plant response rating (purple nutsedge; [6]): 0 | Plant response rating (0 to 10; 0 is no effect, 10 is complete control), Nutsedge (purple nutsedge; Rate 250 g/ha, Postemergence): 0 | Nutsedge plant response rating (purple nutsedge; [7]): 0 | Wheat plant response rating (wheat; [1]): 0 | Wheat plant response rating (wheat; [3]): 0 | Plant response rating, Wheat (wheat; [4]): 0 | Wheat plant response rating (wheat; [5]): 0 | Wheat plant response rating (wheat; [6]): 0 | Plant response rating (0 to 10; 0 is no effect, 10 is complete control), Wheat (wheat; Rate 250 g/ha, Postemergence): 0 | Bedstraw plant response rating (bedstraw; [1]): 0 | Bedstraw plant response rating (0 to 10 scale) (bedstraw; [2]): 0 | Bedstraw plant response rating (bedstraw; [3]): 0 | Plant response rating, Bedstraw (bedstraw; [4]): 0 | Bedstraw plant response rating (bedstraw; [5]): 0 | Bedstraw plant response rating (bedstraw; [6]): 0 | Plant response rating (0 to 10; 0 is no effect, 10 is complete control), Bedstraw (bedstraw; Rate 250 g/ha, Postemergence): 0 | Ducksalad plant response rating (duck salad; [8]): 0 | Ducksalad plant response rating (duck salad; [9]): 0 | Ducksalad plant response rating (duck salad; [10]): 0 | Plant response rating, Ducksalad (duck salad; [11]): 0 | Rice plant response rating (rice; [8]): 0 | Rice plant response rating (rice; [9]): 0 | Rice plant response rating (rice; [10]): 0 | Plant response rating, Rice (rice; [11]): 0 | Cocklebur plant response rating (cocklebur; [1]): 0 | Cocklebur plant response rating (0 to 10 scale) (cocklebur; [2]): 0 | Cocklebur plant response rating (cocklebur; [3]): 0 | Plant response rating, Cocklebur (cocklebur; [4]): 0 | Cocklebur plant response rating (cocklebur; [5]): 0 | Cocklebur plant response rating (cocklebur; [6]): 0 | Plant response rating (0 to 10; 0 is no effect, 10 is complete control), Cocklebur (cocklebur; Rate 250 g/ha, Postemergence): 0 | Cocklebur plant response rating (cocklebur; [7]): 0 | Crabgrass plant response rating (crabgrass; [1]): 0 | Crabgrass plant response rating (0 to 10 scale) (crabgrass; [2]): 0 | Crabgrass plant response rating (crabgrass; [3]): 0 | Plant response rating, Crabgrass (crabgrass; [4]): 3 | Crabgrass plant response rating (crabgrass; [5]): 0 | Crabgrass plant response rating (crabgrass; [6]): 0 | Plant response rating (0 to 10; 0 is no effect, 10 is complete control), Crabgrass (crabgrass; Rate 250 g/ha, Postemergence): 0 | Crabgrass plant response rating (crabgrass; [7]): 2 | Giant foxtail plant response rating (giant foxtail; [1]): 0 | Giant foxtail plant response rating (0 to 10 scale) (giant foxtail; [2]): 0 | Giant foxtail plant response rating (giant foxtail; [3]): 0 | Plant response rating, Giant foxtail (giant foxtail; [4]): 3 | Giant foxtail plant response rating (giant foxtail; [5]): 0 | Giant foxtail plant response rating (giant foxtail; [6]): 0 | Plant response rating (0 to 10; 0 is no effect, 10 is complete control), Giant foxtail (giant foxtail; Rate 250 g/ha, Postemergence): 0 | Giant foxtail plant response rating (giant foxtail; [7]): 3 | Soybean plant response rating (soybean; [1]): 0 | Soybean plant response rating (0 to 10 scale) (soybean; [2]): 0 | Soybean plant response rating (soybean; [3]): 0 | Plant response rating, Soybean (soybean; [4]): 0 | Soybean plant response rating (soybean; [5]): 0 | Soybean plant response rating (soybean; [6]): 0 | Plant response rating (0 to 10; 0 is no effect, 10 is complete control), Soybean (soybean; Rate 250 g/ha, Postemergence): 0 | Soybean plant response rating (soybean; [7]): 0 | B. signalgrass plant response rating (surinam grass; [1]): 0 | B. signalgrass plant response rating (0 to 10 scale) (surinam grass; [2]): 0 | B. signalgrass plant response rating (surinam grass; [3]): 0 | Plant response rating, B. signalgrass (surinam grass; [4]): 0 | B. signalgrass plant response rating (surinam grass; [5]): 0 | B. signalgrass plant response rating (surinam grass; Rate 125 g/ha, Postemergence, scale 0 (no effect) to 10 (complete control)): 0 | Plant response rating, B. signalgrass (surinam grass; Rate 250 g/ha, Postemergence, scale 0 to 10, 0 is no effect, 10 is complete control): 0 | B. signalgrass plant response rating (surinam grass; Rate 500 g/ha, Postemergence, scale 0 to 10, 0 no effect, 10 complete control): 0 | Blackgrass plant response rating (blackgrass; [1]): 0 | Blackgrass plant response rating (0 to 10 scale) (blackgrass; [2]): 0 | Blackgrass plant response rating (blackgrass; [3]): 0 | Plant response rating, Blackgrass (blackgrass; [4]): 0 | Blackgrass plant response rating (blackgrass; [5]): 0 | Blackgrass plant response rating (blackgrass; [6]): 0 | Plant response rating (0 to 10; 0 is no effect, 10 is complete control), Blackgrass (blackgrass; Rate 250 g/ha, Postemergence): 0 | Blackgrass plant response rating (blackgrass; [7]): 0

— patent US6737383B1, “Herbicidal oxadiazolidines” (priority 1999, dated 2004)
